pIC50: −log10 of the molar value. In brackets after ≈: the same amount, converted by molar mass. Several values for one entry are separate records, joined by “and”; a condition that tells them apart may be missing. Equal values may be shown once. Values belong to the compound of their own block, whether it stands above or below them. *1 amine or outer side, *2 acyl side, *3 side chain or, on linkers, in order; H or OH if unused. Where a SMILES comes first, the peptide text is derived from it. Bridges are numbered along the chain shown (N, C = ends). Roman numbers before positions name the chains, in order. [ ]: non-standard residue; d: D form. Actinocin(9to1) = Cc1c2oc3c(C)ccc(C(=O)[*:1])c3nc-2c(C(=O)[*:2])c(N)c1=O; NMeV = CN[C@H](C(=O)O)C(C)C; Sar = CNCC(=O)O
Legend:
[1] = system: Propionibacterium acnes (ATCC 11827); test: Antibacterial bioassay, MIC by broth microdilution (INT colour change); settings: Cutibacterium acnes, ATCC11827, 72 h, read-out: Antibacterial MIC
Procedure: Briefly, the bacteria was cultured from a Kwik-Stick on nutrient agar and incubated at 37°C for 72 h under anaerobic conditions before the assay. The 72 h culture of the bacteria was dissolved in nutrient broth and the suspension was adjusted to 0.5 McFarland standard turbidity. […] In a sterile 96-well plate, 100 µl of samples from the stock solution consisting of the plant extract/ isolated compounds (2 mg/ml in 10% dimethyl sulphoxide (DMSO)) and the positive control tetracycline (0.2 mg/ml) was diluted with broth. […] The bacterial suspension (100 µl) was added to the wells. […] The plates were incubated at 37°C for 72 h in an anaerobic environment.

[2] = DPPH antioxidant (radical scavenging) assay; type: biochemical; settings: for Antioxidant IC50 / pIC50: DPPH; for Antioxidant IC50: 550 nm, samples 100 to 0.7 µg/ml; for pIC50: value in brackets
Procedure: Following the procedures as described by DuToit et al. (2001) for each sample, a dilution series (8 dilutions) was prepared in a 96 well plate by adding distilled water as a dilution medium. […] Each concentration was tested in triplicates. Vitamin C was used as a positive control. The radical scavenging capacities of the samples were determined using a BIOTEK plate reader to measure the disappearance of DPPH at 550 nm. The radical scavenging activity was measured in terms of the amount of antioxidants necessary to decrease the initial DPPH absorbance by 50% (IC50). The IC50 value of each sample was determined graphically by plotting the absorbance of DPPH as a function of the sample concentration in μg/ml. The IC50 is the amount of antioxidant necessary to decrease the initial DPPH absorbance by 50%. The results were calculated using the following equation: AA% = {Absblank(Abssample-Abscontrol)/Absblank} × 100 [formula] The mg vitamin C equivalents/g dry weight of potent samples was calculated as follows: […]) = (IC50(vitc)/IC50(sample)) × 1000. [formula]

[3] = In vitro cytotoxicity assay (XTT); settings: mouse; for CC50: b16-f10 cells
Procedure: (§1) The mouse melanocytes (B16-F10) cells were cultured in a complete Minimum Essential Eagle's Medium (MEM) whereas the human U937 cells were cultured in Roswell Park Memorial Institute (RPMI) containing 10% fetal bovine serum (FBS) and 1% gentamycin. B16-F10 (10^5 cells per well) and U937 (10^6 cells per well) were seeded into a 96-well plate. […] The plate was then incubated at 37°C in 5% CO2, and a humidified atmosphere after which the toxicity effects of the extracts was assayed using the XTT (sodium 3'-[1-(phenyl amino-carbonyl)-3,4-tetrazolium]-bis-[4-methoxy-6-nitrobenzene sulfonic acid hydrate) cytotoxicity assay. […] By referring to the control (medium with DMSO), the cell survival rate was assessed.

[4] = In vitro cytotoxicity assay (XTT); settings: human; for CC50: u937 cells
Procedure: as §1

[5] = constituent of Viburnum jucundum (Rios et al., 2001); cited from earlier work
CNS cancer cells (XF498) = settings: Sung et al., 1999; cited from earlier work
[6] = system: skin cancer cells (SL-MEL-2); settings: Sung et al., 1999; cited from earlier work
[7] = system: colorectal cancer cells (HCT15); settings: Sung et al., 1999; cited from earlier work
MAC tumour cells = settings: Woldemariam et al. (1992); cited from earlier work
U937 human macrophage = test: In vitro cytotoxicity assay (XTT); settings: XTT
Procedure: as §1

P. acnes = test: Transmission electron microscopy (TEM) of treated bacteria; settings: 50 µg/ml, 72 h
Procedure: The bacterial suspension (5 ml) was mixed with plant extract and pure compound to a final concentration of 300 and 100 µg/ml for plant extract and 50 µg/ml for pure compound. […] The pathogen was treated for 72 h; the control group consisted of only bacterial suspension in nutrient broth. […] Samples were washed with phosphate buffer and postfixed in both 1% osmium tetraoxide and uranyl acetate. The cells were dehydrated in ethanol and embedded in quetol resin. Thin sections were prepared with a microtome and micrographs were taken using a JEOL JEM-2100F field emission electron microscope.

IL-8 = test: Cytokine production (ELISA) in U937 cells co-cultured with heat-killed P. acnes; type: cell-based, human; settings: U937 cells infected with P. acnes (Fig 3b)
TNF a = test: as above; type: cell-based, human; settings: 100 and 50 µg/ml, U937 cells infected with P. acnes (Fig 3b)
Procedure: The effect of plant extract on cytokine production (IL 8 and TNF a) was evaluated using enzyme immunoassay kits (ELIZA) using method as described previously (Tsai et al., 2010). Briefly, the log phase culture of P.acnes was harvested, washed three times with phosphate buffer saline (PBS), and incubated at 80°C for 30 min to kill the bacteria. The heat-killed bacteria were stored at 4°C until use. The human U937 cells were seeded at 10^6 cells per well in a 24-well plate and was stimulated with heat killed P. acnes (wet weight 100 µg/ml) alone and in combination with the different test samples. Pentoxifylline was used as a control. After 18 h incubation, the cell-free supernatants were collected and the concentrations of IL 8 and TNF a were analysed. Cytokine standards were serially diluted to facilitate the construction of calibration curves necessary for determining protein concentration of test samples.

MIC [1]: > 500 µg/mL
Antioxidant IC50 [2]: >100 µg/mL
SMILES: CC(=O)OC/C=C(\C)CCC[C@H](C)CCC[C@H](C)CCCC(C)C [Compound C1, phytol acetate]

SMILES: CCCCCCCCCCCCCCCCCCCCCCCCCCCCCCO [Compound C2, triacontanol]
EC50 [3]: > 100 µg/mL
viability at 100 µg/ml [3]: 100%
EC50 [4]: > 100 µg/mL
viability at 100 µg/ml [4]: 100%
MIC [1]: > 500 µg/mL
Antioxidant IC50 [2]: >100 µg/mL
toxicity [5]: non toxic

SMILES: C/C(=C\CO)CCC[C@H](C)CCC[C@H](C)CCCC(C)C [Compound C3, phytol]
toxicity against CNS cancer cells (XF498) (CNS cancer cells (XF498)): mild toxicity
toxicity against skin cancer cells (SL-MEL-2) [6]: mild toxicity
EC50 [3]: > 100 µg/mL
viability at 100 µg/ml [3]: 100%
EC50 [4]: > 100 µg/mL
viability at 100 µg/ml [4]: 100%
MIC [1]: > 500 µg/mL
toxicity against colorectal cancer cells (HCT15) [7]: mild toxicity
Antioxidant IC50 [2]: >100 µg/mL

MIC [1]: 1.9 µg/mL and 2.1 µM
Antioxidant IC50 [2]: 5.05 µg/mL
pIC50 [2]: 4.98
SMILES: COc1c(C)c(O)c(Cc2c(O)c(C)c(OC)c(C(=O)C(C)C)c2O)c(O)c1C(=O)C(C)C [Compound C4, alpha kosin]
cytotoxic effects against MAC tumour cells (MAC tumour cells): strong cytotoxic effects
CC50 [3]: < 3.12 µg/mL
CC50 [4]: < 3.12 µg/mL
Cytotoxicity EC50 U937 human macrophage (U937 human macrophage): <3.12 µg/mL
cell injuries to P. acnes (TEM micrograph) (P. acnes): significant damage to P. acnes
mg vitamin C equivalents/g dry weight ([2]; (IC50 vit C / IC50 sample) x 1000): 392 mg vitamin C equivalents/g dry weight

SMILES: Cc1c2oc3c(C)ccc(C(=O)N[C@@H]4C(=O)N[C@H](C(C)C)C(=O)N5CCC[C@H]5C(=O)N(C)CC(=O)N(C)[C@@H](C(C)C)C(=O)O[C@@H]4C)c3nc-2c(C(=O)N[C@@H]2C(=O)N[C@H](C(C)C)C(=O)N3CCC[C@H]3C(=O)N(C)CC(=O)N(C)[C@@H](C(C)C)C(=O)O[C@@H]2C)c(N)c1=O [actinomycin D, reference compound] (I: T[dV]P[Sar][NMeV] / II: T[dV]P[Sar][NMeV]; ester I:1-I:C, II:1-II:C; linker I:N-II:N via Actinocin(9to1))
CC50 [3]: 0.0045 µg/mL (≈ 0.00358 µM)
CC50 [4]: 0.0045 µg/mL (≈ 0.00358 µM)

SMILES: CC(=O)CCCCn1c(=O)c2c(ncn2C)n(C)c1=O [pentoxifylline]
IL-8 concentration (IL-8): no change
inhibition of TNF a (TNF a): Significant inhibition

SMILES: CN(C)[C@@H]1C(O)=C(C(N)=O)C(=O)[C@@]2(O)C(O)=C3C(=O)c4c(O)cccc4[C@@](C)(O)[C@H]3C[C@@H]12 [tetracycline, reference compound]
MIC [1]: 3.1 µg/mL and 7 µM

Antioxidant IC50 [2]: 1.98 µg/mL
pIC50 [2]: 4.95
SMILES: O=C1O[C@H]([C@@H](O)CO)C(O)=C1O [vitamin C, reference compound]
